Laboratory results: patent EP4793277A1, “CARBOXYLIC ACID COMPOUND AND PREPARATION METHOD THEREFOR AND USE THEREOF” (Nutshell Therapeutics (Shanghai) Co., Ltd., priority 2023, dated 2025)
Like-named read-outs stand apart in the source and are kept apart here.

Tests used:
CYP3A4/5 [1] = assay: Multi-concentration inhibitory activity curve of CYP3A4/5 enzymes (liver microsomes); type: in vitro ADME; conditions: human liver microsomes
Method: • 1. Experimental purpose: To determine the concentration inhibitory activity curve of compounds on CYP3A4/5 enzymes. • 2. Experimental instrument and materials:
(§1) The mixture was added with HCl to adjust the pH to 7.4 and brought to a final volume of 1000 mL with water.
Liver microsomes were thawed in a water bath at 37°C prior to use. […] A 5 mM NADPH working solution was prepared in phosphate-buffered saline. […] The above stock solution was diluted with acetonitrile (4-fold dilution, 6 non-zero concentrations).
(§2) 300 µL of the supernatant was aliquoted for further LC-MS/MS analysis.
The half-maximal inhibitory concentration (IC50) was calculated using Graph Pad Prism. Table 3: Inhibitory activity of compounds on CYP3A4/5 enzymes

hERG potassium channel = molecular target: T1, hERG potassium channel (Homo sapiens, UniProt Q12809); assay: Manual patch-clamp test of the inhibitory activity on hERG potassium channel; type: cell-based; conditions: HEK293 cell line stably expressing the hERG ion channel, five concentrations 0.37 to 30 µM, n = 2
T1 construct: host or cells: HEK293
T1 sequence (Q12809 whole entry): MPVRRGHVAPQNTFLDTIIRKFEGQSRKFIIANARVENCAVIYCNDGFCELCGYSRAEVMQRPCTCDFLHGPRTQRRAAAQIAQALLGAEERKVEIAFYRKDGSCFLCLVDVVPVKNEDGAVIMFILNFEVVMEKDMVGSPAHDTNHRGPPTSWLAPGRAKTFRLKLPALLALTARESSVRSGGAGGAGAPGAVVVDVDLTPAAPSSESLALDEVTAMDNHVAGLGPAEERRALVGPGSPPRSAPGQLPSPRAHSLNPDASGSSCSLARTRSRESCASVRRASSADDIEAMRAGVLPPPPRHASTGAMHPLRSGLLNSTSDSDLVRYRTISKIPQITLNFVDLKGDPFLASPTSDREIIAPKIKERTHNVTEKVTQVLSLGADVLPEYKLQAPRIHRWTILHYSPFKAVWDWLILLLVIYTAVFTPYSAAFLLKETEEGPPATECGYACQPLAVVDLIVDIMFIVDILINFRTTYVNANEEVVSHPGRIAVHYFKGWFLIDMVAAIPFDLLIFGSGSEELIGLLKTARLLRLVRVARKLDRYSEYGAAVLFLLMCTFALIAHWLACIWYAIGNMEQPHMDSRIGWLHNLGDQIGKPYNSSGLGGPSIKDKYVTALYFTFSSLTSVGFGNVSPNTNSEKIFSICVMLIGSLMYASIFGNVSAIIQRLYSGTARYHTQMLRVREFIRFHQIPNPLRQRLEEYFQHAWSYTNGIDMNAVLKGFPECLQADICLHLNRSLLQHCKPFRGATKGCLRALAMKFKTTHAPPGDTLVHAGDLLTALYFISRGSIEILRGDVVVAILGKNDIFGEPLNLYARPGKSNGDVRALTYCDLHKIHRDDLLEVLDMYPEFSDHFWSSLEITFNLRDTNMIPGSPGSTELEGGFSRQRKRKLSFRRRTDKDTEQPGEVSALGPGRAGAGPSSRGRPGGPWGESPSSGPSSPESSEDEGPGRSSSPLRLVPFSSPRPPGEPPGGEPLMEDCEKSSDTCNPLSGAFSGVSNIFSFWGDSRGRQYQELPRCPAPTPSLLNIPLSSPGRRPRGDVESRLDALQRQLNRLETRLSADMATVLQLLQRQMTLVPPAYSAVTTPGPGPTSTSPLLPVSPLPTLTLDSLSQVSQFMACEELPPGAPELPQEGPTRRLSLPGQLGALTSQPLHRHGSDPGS
Method: This experiment was conducted to evaluate the effect of compounds in five concentrations on hERG channel current, obtaining a dose-effect curve and calculating the IC50.
Cell line and cell culture: HEK293 cell line stably expressing the hERG ion channel (Cat. No.: K1236) was purchased from Invitrogen. The cell line was cultured in medium containing 85% DMEM, 10% dialyzed fetal bovine serum, 0.1 mM non-essential amino acid solution, 100 U/mL penicillin-streptomycin solution, 25 mM HEPES, 5 µg/mL blasticidin, and 400 µg/mL geneticin. When the cell density grew to 40% to 80% of the bottom area of the culture dish, the cells were digested with trypsin and passaged three times per week. Prior to the experiment, the cells were cultured at a density of 5 × 10^5 cells per 3.5 cm culture dish, induced with 1 µg/mL doxycycline for 48 hours, followed by digestion, and seeded onto glass slides for subsequent manual patch-clamp experiments.
Solution preparation: Extracellular fluid (in mM): 132 sodium chloride, 4 potassium chloride, 3 calcium chloride, 0.5 magnesium chloride, 11.1 glucose, and 10 HEPES (pH adjusted to 7.35 with sodium hydroxide). Intracellular fluid (in mM): 10 EGTA, 10 HEPES, 10 potassium chloride, 10 sodium chloride, and 110 potassium fluoride (pH adjusted to 7.2 with potassium hydroxide). Osmolality of the solutions was controlled between 280 and 300 mOsmol/kg. The solutions were filtered and stored at 4°C prior to use.
Preparation of test compound solutions: Following the standard operating procedures, test compounds were dissolved in DMSO and prepared into a stock solution with a final concentration of 10 mM. The stock solution was serially diluted 1:3 in DMSO as the solvent to obtain three intermediate solutions with concentrations of 3.33, 1.11, and 0.37 mM. Prior to the experiment, the test compound intermediate solutions were further diluted 1:1000 with extracellular fluid to prepare a series of working solutions. […]

p53 Y220C mutant = molecular target: T2, p53 Y220C mutant (Homo sapiens, UniProt P04637, Y220C); assay: HTRF assay: compounds promoting the binding of p53 Y220C mutant with DNA; type: biochemical; conditions: HTRF/FRET; His-tagged p53 Y220C (94-312) with biotin-labeled DNA; incubated overnight
T2 construct: Recombinant His-tagged p53 Y220C (94-312) used for HTRF assays was expressed in E. coli; made in house; host or cells: E. coli
Method: Homogeneous time-resolved fluorescence (HTRF) assay was used to measure the reactivation effect of compounds on the p53 Y220C mutant. Recombinant His-tagged p53 Y220C (94-312) used for HTRF assays was expressed in E. coli and purified to 90% purity using a Ni-NTA column. The biotin-labeled DNA used for HTRF assays was synthesized by Pharmaron Inc, with the specific sequence of 5'-[…]-3'.
The binding of recombinant His-tagged p53 Y220C protein with biotin-labeled DNA was measured using fluorescence resonance energy transfer (FRET). For FRET assays, the binding between the p53 mutant and the DNA sequences was measured by detecting the fluorescence of the interaction between Eu-conjugated anti-His antibody (Cisbio, 61HI2KLA) and d2-conjugated streptavidin (Cisbio, 610SADLF) bound to a biotin-labeled DNA molecule. Compounds were prepared as 2 mM stock solutions and serially diluted 1:3 in DMSO to obtain 10 concentrations. Each compound at 200× working concentration was sequentially diluted to 4× working concentration. 4 µL of compound solution was transferred row-by-row to a 384-well assay plate using Echo, with 2 replicates per column. Subsequently, 4 µL of p53 solution was added to the assay plate, followed by 4 µL of biotinylated DNA solution, and then 4 µL of assay solution (His-Eu antibody and streptavidin-d2) was added to each well. The assay plate was incubated overnight in the dark. Fluorescence was read on a BMG microplate reader (BMG LABTECH).
The ratio for each well was calculated (ratio_665 nm/615 nm - ratio_background). The activity (%) was calculated as follows: C = (Ave_Ac−Ave_Ba)/(Ave_Dc−Ave_Bd) [formula] R data = (A−Ave_Ba−C×D)/(D−Ave_Bd) × (Ave_Dc−Ave_Bd) [formula] Activity (%) = R data/Ave_VC × 100. [formula] • A: fluorescence intensity of the sample at 665 nm; • D: fluorescence intensity of the sample at 615 nm; • Ba: fluorescence intensity of the plate background at 665 nm; • Bd: fluorescence intensity of the plate background at 615 nm; • Dc: fluorescence intensity of HIS-Eu background at 615 nm; • Ac: fluorescence intensity of streptavidin-d2 background at 665 nm; • VC: DMSO treatment group.
SC150 was calculated using GraphPad 8.0 to fit the logarithm of activity (%) versus compound concentration to a nonlinear regression (dose response-variable slope). Table 1: Activity of compounds promoting the binding of p53 Y220C mutant with DNA

CYP2D6 = molecular target: T3, CYP2D6 (Homo sapiens, UniProt P10635); assay: Inhibitory activity on CYP isoenzymes at a single concentration (liver microsomes); type: in vitro ADME; conditions: pH 7.4, probe dextromethorphan, Final compound concentration: 10 µM, substrate Dextromethorphan, read-out: Inhibition rate (%) CYP2D6
T3 construct: Liver microsomes were thawed in a water bath at 37°C prior to use; from tissue; host or cells: liver microsomes
T3 sequence (P10635 whole entry): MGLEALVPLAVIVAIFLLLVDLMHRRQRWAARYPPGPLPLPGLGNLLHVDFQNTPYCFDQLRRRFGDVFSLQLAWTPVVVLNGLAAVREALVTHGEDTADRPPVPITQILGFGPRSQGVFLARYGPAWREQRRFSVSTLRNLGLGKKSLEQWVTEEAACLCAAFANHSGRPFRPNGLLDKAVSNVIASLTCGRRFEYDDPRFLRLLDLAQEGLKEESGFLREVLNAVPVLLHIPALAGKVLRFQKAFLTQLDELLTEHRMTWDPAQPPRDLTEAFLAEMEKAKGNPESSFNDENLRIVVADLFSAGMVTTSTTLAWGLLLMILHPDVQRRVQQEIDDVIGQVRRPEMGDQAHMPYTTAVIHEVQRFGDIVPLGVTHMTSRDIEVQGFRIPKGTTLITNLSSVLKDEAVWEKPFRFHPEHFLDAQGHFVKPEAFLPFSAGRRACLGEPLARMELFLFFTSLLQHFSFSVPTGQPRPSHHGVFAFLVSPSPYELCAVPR
Method: (§3) • 1. […] Experimental instrument and reagents: [table] […] The mixture was added with HCl to adjust the pH to 7.4 and brought to a final volume of 1000 mL with water. […] [table] [table] Liver microsomes were thawed in a water bath at 37°C prior to use. […] A 5 mM NADPH working solution was prepared in phosphate-buffered saline. […] 300 µL of the supernatant was aliquoted for further LC-MS/MS analysis. […] Table 3: Inhibitory activity of compounds on CYP isoenzymes*

CYP2C19 = molecular target: T4, CYP2C19 (Homo sapiens, UniProt P33261); assay: as above; type: in vitro ADME; conditions: pH 7.4, probe mephenytoin, Final compound concentration: 10 µM, substrate Mephenytoin, read-out: Inhibition rate (%) CYP2C19
T4 construct: Liver microsomes were thawed in a water bath at 37°C prior to use; from tissue; host or cells: liver microsomes
T4 sequence (P33261 whole entry): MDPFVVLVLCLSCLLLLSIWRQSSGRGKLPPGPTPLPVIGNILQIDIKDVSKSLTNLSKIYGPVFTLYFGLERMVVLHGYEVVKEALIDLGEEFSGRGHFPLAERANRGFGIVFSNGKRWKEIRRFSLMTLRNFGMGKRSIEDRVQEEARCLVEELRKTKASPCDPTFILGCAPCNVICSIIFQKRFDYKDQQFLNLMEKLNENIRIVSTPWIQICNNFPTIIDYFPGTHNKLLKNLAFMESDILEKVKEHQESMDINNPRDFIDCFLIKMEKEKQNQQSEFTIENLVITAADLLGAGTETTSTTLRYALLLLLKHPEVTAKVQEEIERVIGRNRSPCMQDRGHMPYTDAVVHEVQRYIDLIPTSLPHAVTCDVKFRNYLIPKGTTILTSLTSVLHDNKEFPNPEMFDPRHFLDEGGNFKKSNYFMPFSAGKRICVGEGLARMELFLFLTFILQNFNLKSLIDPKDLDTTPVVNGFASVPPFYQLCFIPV
Method: as §3

CYP2C9 = molecular target: T5, CYP2C9 (Homo sapiens, UniProt P11712); assay: as above; type: in vitro ADME; conditions: pH 7.4, probe diclofenac, Final compound concentration: 10 µM, substrate Diclofenac, read-out: Inhibition rate (%) CYP2C9
T5 construct: Liver microsomes were thawed in a water bath at 37°C prior to use; from tissue; host or cells: liver microsomes
T5 sequence (P11712 whole entry): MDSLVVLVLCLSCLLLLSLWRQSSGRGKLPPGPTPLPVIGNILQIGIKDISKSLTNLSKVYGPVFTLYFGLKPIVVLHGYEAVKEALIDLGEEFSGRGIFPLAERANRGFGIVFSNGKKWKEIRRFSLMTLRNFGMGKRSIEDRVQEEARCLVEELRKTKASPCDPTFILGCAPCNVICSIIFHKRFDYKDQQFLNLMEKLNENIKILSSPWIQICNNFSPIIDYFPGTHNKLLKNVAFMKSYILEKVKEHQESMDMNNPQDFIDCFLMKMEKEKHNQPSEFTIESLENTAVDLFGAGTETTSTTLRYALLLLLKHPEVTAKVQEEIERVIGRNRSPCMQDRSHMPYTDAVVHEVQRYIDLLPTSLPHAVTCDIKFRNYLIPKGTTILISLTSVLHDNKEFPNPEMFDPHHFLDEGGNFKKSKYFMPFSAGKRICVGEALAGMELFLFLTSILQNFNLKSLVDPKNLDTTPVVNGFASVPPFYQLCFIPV
Method: as §3

CYP1A2 = molecular target: T6, CYP1A2 (Homo sapiens, UniProt P05177); assay: as above; type: in vitro ADME; conditions: pH 7.4, probe phenacetin, Final compound concentration: 10 µM, substrate Phenacetin, read-out: Inhibition rate (%) CYP1A2
T6 construct: from tissue; host or cells: liver microsomes
T6 sequence (P05177 1-516): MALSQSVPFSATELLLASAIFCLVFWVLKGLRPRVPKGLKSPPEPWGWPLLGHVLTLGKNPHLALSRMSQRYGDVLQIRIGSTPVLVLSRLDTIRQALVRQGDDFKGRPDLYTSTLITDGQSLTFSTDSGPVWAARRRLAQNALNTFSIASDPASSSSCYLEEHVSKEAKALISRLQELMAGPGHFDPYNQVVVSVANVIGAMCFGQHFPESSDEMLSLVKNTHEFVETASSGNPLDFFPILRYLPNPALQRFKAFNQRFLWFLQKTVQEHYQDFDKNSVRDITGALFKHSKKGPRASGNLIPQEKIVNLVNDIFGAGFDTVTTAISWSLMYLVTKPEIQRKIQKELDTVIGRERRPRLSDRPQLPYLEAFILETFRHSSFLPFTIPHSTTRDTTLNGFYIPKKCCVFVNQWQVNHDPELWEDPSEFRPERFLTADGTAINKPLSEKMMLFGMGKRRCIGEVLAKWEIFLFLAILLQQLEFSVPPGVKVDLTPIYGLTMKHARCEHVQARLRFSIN
Method: as §3

NUGC-3 cells = assay: Anti-proliferation effect on NUGC-3 cells (Cell Counting Kit-8); type: cell-based; conditions: Homo sapiens, NUGC-3, 120 h, 5 days of treatment
Method: Cell line NUGC-3 (JCRB, JCRB0822) was cultured in RPMI 1640 medium (Invitrogen, 11875-085) supplemented with 10% (v/v) fetal bovine serum (BI, 04-002-1A), according to the standard instructions of the American Type Culture Collection. The cell line was authenticated by short tandem repeat profiling.
In the proliferation assay, 1000 NUGC-3 cells were seeded in a 96-well flat clear bottom, TC-treated plate (Corning, 3903) in 200 µL of medium per well, and allowed to recover overnight in culture medium. Compounds were added with increasing concentration, with DMSO treatment serving as a […]. After 5 days of treatment, the plate was equilibrated to room temperature for 30 minutes, and the number of living cells was measured by the addition of the Cell Counting Kit-8 reagent (MCE, HY-K0301). Absorbance was measured on an EnSpire microplate reader (PerkinElmer). The relative viability of each group was presented as the percentage change relative to the […] group and then fit to a four-parameter logit non-linear curve using the program XLFit (IDBS). Table 2: Anti-proliferation activity of compounds on NUGC-3 cells

CYP3A4/5 [2] = assay: Inhibitory activity on CYP isoenzymes at a single concentration (liver microsomes); type: in vitro ADME; conditions: Final compound concentration: 10 µM, human liver microsomes
Method: • 1. […] Experimental instrument and reagents:
as §1
Liver microsomes were thawed in a water bath at 37°C prior to use. […] A 5 mM NADPH working solution was prepared in phosphate-buffered saline.
as §2
Table 3: Inhibitory activity of compounds on CYP isoenzymes*

[3] = pH 7.4, probe midazolam, midazolam as substrate
[4] = pH 7.4, probe testosterone, testosterone as substrate
[5] = pH 7.4, probe midazolam, substrate Midazolam, read-out: Inhibition rate (%) CYP3A4/5 (Midazolam)
[6] = pH 7.4, probe testosterone, substrate Testosterone, read-out: Inhibition rate (%) CYP3A4/5 (Testosterone)

SMILES	IC50 at 10 min (CYP3A4/5 [1]; [3]) [nM]	IC50 at 10 min (CYP3A4/5 [1]; [4]) [nM]	IC50 (hERG potassium channel) [nM]	SC150 (p53 Y220C mutant) [nM]	inhibition at 10 min, 10 µM (CYP2D6) [%]	inhibition at 10 min, 10 µM (CYP2C19) [%]	inhibition at 10 min, 10 µM (CYP2C9) [%]	inhibition at 10 min, 10 µM (CYP1A2) [%]	IC50 (NUGC-3 cells) [nM]	inhibition at 10 min, 10 µM (CYP3A4/5 [2]; [5]) [%]	inhibition at 10 min, 10 µM (CYP3A4/5 [2]; [6]) [%]
[2H]C([2H])([2H])Oc1nc(C(=O)O)ccc1NCC#Cc1cc2c(N[C@@H]3CCN(C)C[C@@H]3F)cccn2c1CC(F)(F)F [Cpd-1, 5-((3-(8-(((3S,4R)-3-Fluoro-1-methylpiperidin-4-yl)amino)-3-(2,2,2-trifluoroethyl)indolizin-2-yl)prop-2-yn-1-yl)amino)-6-(methoxy-d3)picolinic acid]	> 50000	> 50000	> 30000	0.4	2.6	5.5	< 0	6.3	100	3.4	< 0
COc1nc(C(=O)O)ccc1NCC#Cc1cc2c(N[C@@H]3CCN(C)C[C@@H]3F)cccn2c1CC(F)(F)F [Cpd-2, 5-((3-(8-(((3S,4R)-3-Fluoro-1-methylpiperidin-4-yl)amino)-3-(2,2,2-trifluoroethyl)indolizin-2-yl)prop-2-yn-1-yl)amino)-6-methoxypicolinic acid]	> 50000	> 50000	> 30000	0.5	0.73	1.9	< 0	1.2	120	< 0	1.7
CNC(=O)c1ccc(NCC#Cc2cc3c(N[C@@H]4CCN(C)C[C@@H]4F)cccc3n2CC(F)(F)F)c(OC)c1 [Cpd-A]	2300	890	19000	10	5.5	42	38	12	780	83	–
COc1cc(S(C)(=O)=O)ccc1NCC#Cc1nc2c(N[C@@H]3CCN(C)C[C@@H]3F)cccn2c1CC(F)(F)F [Cpd-B]	–	–	–	15	3.6	31	21	0.56	360	61	75
CNC(=O)c1ccc(NCC#Cc2cc3c(N[C@@H]4CCN(C)C[C@@H]4F)cccn3c2CC(F)(F)F)c(OC)c1 [Cpd-C, 4-((3-(8-(((3S,4R)-3-Fluoro-1-methylpiperidin-4-yl)amino)-3-(2,2,2-trifluoroethyl)indolizin-2-yl)prop-2-yn-1-yl)amino)-3-methoxy-N-methylbenzamide]	3800	–	–	4.6	9.5	67	43	18	230	79	–
